Test results from US20250026796A1 (priority 2022, published 2025).

Biological target: SARS-CoV-2 E (2E) (Severe acute respiratory syndrome coronavirus 2, UniProt P0DTC4)
Type: cell-based

SARS-CoV-2 E (2E), sequence (P0DTC4 whole entry, looked up): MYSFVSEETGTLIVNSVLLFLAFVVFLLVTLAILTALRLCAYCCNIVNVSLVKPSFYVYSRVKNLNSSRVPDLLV

Question: With MYSFVSEETGTLIVNSVL [MY18] as the sequence, how does the “Relative fluorescent intensity of DND-189 dye (proton homeostasis)” value read?
Answer: significantly restores the proton homeostasis
